Test results: US20240344241A1, “PROTEINACEOUS MOLECULES AND USES THEREFOR” (THE UNIVERSITY OF QUEENSLAND, priority 2021, published 2024)
Bridge positions count the residues as written; N and C are the ends. Peptide text beside a SMILES is read from it.

Legend:
[1] = test system: human whole blood, intrinsic pathway (INTEM); test: Rotational thromboelastometry INTEM in human whole blood
Description: (§1) The anticoagulant activity of cyclic MCoFx7 was determined in human whole blood using two assays: activated clotting time (ACT) and rotational thromboelastometry (ROTEM). In ACT assays, the clotting time (y-axis) was increased in a dose-dependent manner from the control (124 s), reaching 223 s with 20 μM MCoFx7. […] Anticoagulant activity was verified by thromboelastometry (TEM) that was measured after activation of the intrinsic pathway (INTEM) (refer to FIG. 16). […] By comparison, a single concentration of cyclic [A25P]MCoFx7 (10 μM) produced a clotting time of 500 s, similar to cyclic MCoFx7 at 10 μM (469 s).
(§2) Activated clotting time (ACT) was measured in fresh whole blood using celite tubes with the Hemochron 401 coagulation analyzer (Soma Technology, Bloomfield, CT, USA). Whole blood clot formation was recorded by ROTEM® Thromboelastometry (Haemoview Diagnostics, Brisbane, Australia) using INTEM (contact factor-initiated coagulation) and HEPTEM (contact factor-initiated coagulation with heparinase) activating reagents according to the manufacturer's instructions.

Human β-FXIIa [2] = target: T1, Human β-FXIIa (Homo sapiens, UniProt P00748); test: FXIIa competitive inhibition assay, fluorescent substrate Boc-QGR-MCA; type: biochemical; conditions: 0.5 nM FXIIa, 50 μM Boc-QGR-MCA; read-out: Ki for FXIIa, fluorescent substrate
T1 construct: Human β-FXIIa was obtained from Molecular Innovations, together with human FXa, human FXIa, human α-thrombin, and human plasma kallikrein; purchased Molecular Innovations; host or cells: purified from human plasma
T1 sequence (P00748 373-615 limits assumed, other chains not shown): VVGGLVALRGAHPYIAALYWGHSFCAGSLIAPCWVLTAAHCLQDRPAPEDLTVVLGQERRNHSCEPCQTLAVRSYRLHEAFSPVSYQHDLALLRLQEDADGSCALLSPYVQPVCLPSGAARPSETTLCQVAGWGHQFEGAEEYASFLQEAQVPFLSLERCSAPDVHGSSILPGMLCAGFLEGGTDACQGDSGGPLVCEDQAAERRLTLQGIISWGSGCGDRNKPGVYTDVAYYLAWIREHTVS
Procedure, shortened: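 Human β-FXIIa (10 nM) preincubated to equilibrium with serially diluted inhibitors at room temperature in Tris pH 8.0 with NaCl, CaCl2 and Triton X-100. Activity followed with 100 μM Ac-QRFR-pNA (KM 162 μM) at 405 nm, or for later variants 0.5 nM enzyme with 50 μM Boc-QGR-MCA (KM 187 μM) by fluorescence. Ki from Morrison fits.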

human blood [3] = test: INTEM assay of blood samples from the ex vivo ECMO model; conditions: ECMO circuit, single dose 20 μM
Description: (§3) The duration of effect for each treatment was also monitored by taking blood samples from the circuit over time and performing clotting assays (refer to FIG. 18). In ACT assays, a clotting time of more than 200 s was maintained for cyclic MCoFx7 over the course of the experiment (>300 s from 0.5 h-6 h).
(§4) Ex vivo ECMO circuits (Permanent Life Support [PLS] System, Maquet C P, Rastatt, Germany) consisted of a Quadrox D Oxygenator and ROTAFLOW centrifugal pump, both incorporated into a tubing set, with a tip-to-tip BIOLINE (albumin and heparin) coating. Initially, the PLS system was primed with Plasma-Lyte 148 and heated to 37.8° C. […] Inlet and outlet pressures between the membrane oxygenator were monitored using a silicone-based pressure transducer (Omega Engineering, Norwalk, CT, USA) and were recorded as the delta oxygenator pressure (P). […]
as §2

human blood [4] = test: HEPTEM assay of blood samples from the ex vivo ECMO model; conditions: ECMO circuit, heparinase added
Description: as §3, §4, §2

human blood [5] = test: ACT assay of blood samples from the ex vivo ECMO model; conditions: ECMO circuit, single dose 20 μM
Description: as §3, §4, §2

human whole blood = test: Activated clotting time (ACT) in human whole blood
Description: as §1, §2

Human trypsin = target: T2, Human trypsin (Homo sapiens, UniProt P07477); test: Trypsin competitive inhibition assay; type: biochemical
T2 construct: purchased Sigma-Aldrich; host or cells: purified from human tissue
Description: (§5) The activity of acyclic and cyclic MCoFx1-5 and analogues thereof was assessed in competitive inhibition assays, as previously described in Swedberg et al. (2016) J Med Chem, 59: 7287-7292. Human β-FXIIa was obtained from Molecular Innovations, together with human FXa, human FXIa, human α-thrombin, and human plasma kallikrein. Human cationic trypsin and human plasmin were obtained from Sigma-Aldrich, and recombinant human matriptase was sourced from R&D Systems. Recombinant human urokinase (uPA) and recombinant human tissue plasminogen activator (tPA) were expressed in Expi293 cells, as previously described in Li et al. (2019) Chembiochem, 20: 46-50. FXIIa inhibition assays were performed in clear, low-binding 96-well plates using 250 μL (final volume) of assay buffer (0.1 M Tris-HCl pH 8.0, 0.1 M NaCl, 10 mM CaCl2 and 0.005% Triton X-100). Inhibitors were serially diluted and incubated with 10 nM FXIIa at room temperature to reach equilibrium. After adding 100 μM Ac-QRFR-pNA substrate (KM=162 μM), enzymatic activity was measured by monitoring release of the pNA moiety using a TECAN infinite M1000 Pro plate reader (A=405 nm, reading interval, 10 s; assay time course, 7 min). Assays were conducted in three times in duplicate. Substrate kinetic constants (Michaelis-Menten) and inhibition constants (Morrison K) were determined by non-linear regression using Prism 7 (GraphPad). Selectivity assays with off-target proteases were performed in a similar way, except that different concentrations of enzyme and substrate were used, as indicated in Table 16. For assays using a fluorescent substrate (peptide-4-methylcoumaryl-7-amide, MCA), black low-binding 96-well plates were used and activity was measured using a TECAN infinite M1000 pro plate reader (λex 360 nm, λem 460 nm, reading interval, 30 s; assay time course, 5-30 min).

[6] = test system: clotting via the extrinsic pathway; test: Prothrombin time (PT) assay in human plasma; type: biochemical; conditions: at 10 μM
Source text: (§6) Citrated, platelet-poor plasma samples from healthy adults were collected, prepared, and stored using previously established collection protocols, such as in Zdenek et al. (2019) Toxicol in Vitro, 58: 97-109.
(§7) Standard coagulation assays were used to determine the effect of the inhibitors on the clotting time of human plasma. Activated partial thromboplastin time (aPTT) uses a Kaolin reagent (clay) to activate the intrinsic/contact pathway of the coagulation cascade, whereas prothrombin time (PT) uses Neoplastine (lyophilized thromboplastin prepared from rabbit cerebral tissue) to activate the extrinsic/tissue-factor pathway of the coagulation cascade. A minor adjustment was made to both tests (addition of 25 μL inhibitor or buffer; refer to Table 17) to accommodate the addition of an inhibitor without changing the total volume (and therefore relative ratios of additives) of the assay. Concentrations of inhibitor are reported as the concentration at the point of incubation in the assay, i.e. not taking into account the addition of the start reagent (calcium for aPTT, or Neoplastine for PT).
(§8) Clotting time (seconds) of plasma was automatically measured using a STA-R Max® analyzer (Stago, Asnieres sur Seine, France). Measurements were conducted using a viscosity-based (mechanical) detection system, whereby opposing magnets oscillate a small metal spherical pellet inside the test cuvette (250 μL total volume) until a clot is formed. Dilution of the inhibitor in Owren-Koller (OK) buffer for dose-response curves was performed automatically by the machine. Reagents were kept at 15-19° C. in the machine during experimentation and otherwise stored at 4° C. All tests were performed in triplicate.

Human β-FXIIa [7] = target: T1, Human β-FXIIa; test: FXIIa competitive inhibition assay, colorimetric substrate Ac-QRFR-pNA; type: biochemical
Procedure, shortened: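 Enzyme and substrate levels differ per protease. Inhibitor–enzyme mixtures reach equilibrium at room temperature at pH 8.0 with 10 mM CaCl2 before substrate addition; continuous absorbance (405 nm) or fluorescence (360/460 nm) readout gives Morrison Ki.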

[8] = test system: clotting via the intrinsic pathway; test: Activated partial thromboplastin time (aPTT) assay in human plasma; type: biochemical
Source text: as §6, §7, §8

Rec. human matriptase = target: T3, Rec. human matriptase (Homo sapiens, UniProt Q9Y5Y6); test: Matriptase inhibition assay; type: biochemical
T3 construct: purchased R&D Systems
T3 sequence (Q9Y5Y6 615-855 limits assumed): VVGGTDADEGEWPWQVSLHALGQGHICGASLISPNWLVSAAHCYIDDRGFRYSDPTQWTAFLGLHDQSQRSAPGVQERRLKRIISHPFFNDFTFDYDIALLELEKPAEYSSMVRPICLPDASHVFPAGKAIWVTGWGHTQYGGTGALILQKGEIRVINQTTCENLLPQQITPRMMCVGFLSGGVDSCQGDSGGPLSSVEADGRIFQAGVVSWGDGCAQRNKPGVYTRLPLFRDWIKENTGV
Description: as §5

[9] = target: kallikrein-related peptidase 4 (KLK4) (Homo sapiens, UniProt Q9Y5K2); test: KLK4 competitive inhibition assay; type: biochemical
Chain of kallikrein-related peptidase 4 (KLK4) (Q9Y5K2 31-254): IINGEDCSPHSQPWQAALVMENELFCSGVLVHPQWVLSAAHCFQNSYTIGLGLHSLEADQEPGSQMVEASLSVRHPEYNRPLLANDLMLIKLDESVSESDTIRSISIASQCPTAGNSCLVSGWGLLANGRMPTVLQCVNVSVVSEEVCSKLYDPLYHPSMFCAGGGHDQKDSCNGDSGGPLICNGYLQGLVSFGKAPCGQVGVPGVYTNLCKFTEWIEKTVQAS
Description: The inhibitor variants were screened against FXIIa and three off-target proteases, trypsin, matriptase and kallikrein-related peptidase 4 (KLK4), in competitive inhibition assays using a single concentration of inhibitor that ranged from 1.25 nM (KLK4) to 25 nM (FXIIa).
The activity of acyclic and cyclic MCoFx1-5 and analogues thereof was assessed in competitive inhibition assays, as previously described in Swedberg et al. (2016) J Med Chem, 59: 7287-7292. Human β-FXIIa was obtained from Molecular Innovations, together with human FXa, human FXIa, human α-thrombin, and human plasma kallikrein. Human cationic trypsin and human plasmin were obtained from Sigma-Aldrich, and recombinant human matriptase was sourced from R&D Systems. […] After adding 100 μM Ac-QRFR-pNA substrate (KM=162 μM), enzymatic activity was measured by monitoring release of the pNA moiety using a TECAN infinite M1000 Pro plate reader (A=405 nm, reading interval, 10 s; assay time course, 7 min). […] Substrate kinetic constants (Michaelis-Menten) and inhibition constants (Morrison K) were determined by non-linear regression using Prism 7 (GraphPad). […] For assays using a fluorescent substrate (peptide-4-methylcoumaryl-7-amide, MCA), black low-binding 96-well plates were used and activity was measured using a TECAN infinite M1000 pro plate reader (λex 360 nm, λem 460 nm, reading interval, 30 s; assay time course, 5-30 min).

Compound	INTEM clotting time ([1]; 10 μM)	INTEM clotting time ([1]; 20 μM)	Ki (Human β-FXIIa [2])	INTEM anticoagulant activity, duration (human blood [3])	HEPTEM anticoagulant activity (human blood [4])	ACT clotting time (human blood [5]; from 0.5 h-6 h)	ACT clotting time maintained over the course of the experiment (human blood [5])	ACT clotting time versus therapeutic range (180-220 s) (human whole blood; 10 μM or 20 μM)	ACT clotting time (human whole blood; 20 μM, human whole blood)	Ki against trypsin (in words) (Human trypsin)	fold change in activity for trypsin compared to M (Human trypsin)	clotting time compared to control, PT assay [6]	change in Ki for FXIIa compared to M (Human β-FXIIa [7])	EC1.5× (concentration required to extend the clotting time by 50%) [8]	EC2× (doubling the clotting time) [8]	Ki against matriptase (in words) (Rec. human matriptase)	fold change in activity for matriptase compared to M (Rec. human matriptase)	fold change in activity for KLK4 compared to M [9]
CC[C@H](C)[C@@H]1NC(=O)CNC(=O)CNC(=O)[C@H](CC(=O)O)NC(=O)[C@H](CO)NC(=O)CNC(=O)[C@H](CO)NC(=O)CNC(=O)[C@@H]2CSSC[C@@H]3NC(=O)[C@H](CC(=O)O)NC(=O)[C@H](CO)NC(=O)[C@H](CC(=O)O)NC(=O)[C@H](CCCNC(=N)N)NC(=O)[C@H](CCCNC(=N)N)NC(=O)[C@@H]4CSSC[C@H](NC(=O)[C@H]([C@@H](C)CC)NC(=O)[C@H](CSSC[C@H](NC1=O)C(=O)N1CCC[C@H]1C(=O)N[C@@H](CCCNC(=N)N)C(=O)N[C@@H]([C@@H](C)CC)C(=O)NCC(=O)N[C@@H](CCCNC(=N)N)C(=O)N[C@@H](CC(C)C)C(=O)N4)NC(=O)[C@H](C)NC(=O)CNC(=O)[C@@H]1CCCN1C3=O)C(=O)N[C@@H](CCCNC(=N)N)C(=O)N[C@@H](C)C(=O)N[C@@H]([C@@H](C)O)C(=O)N[C@@H](CCCNC(=N)N)C(=O)N[C@@H](Cc1ccccc1)C(=O)N2 [Cyclic MCoFx7] (cyclo(ACICRATRFCGSGSDGGICPRIGRLCRRDSDCPG); disulfide 2-19, 4-26, 10-32)	469 s	521 s	0.064 nM	anticoagulant activity was maintained for 6 h	independent of heparin	> 300 s	more than 200 s	within the therapeutic range	223 s									
NH2-RVCPR[4-F-Phe]EKKCRRDSDCPGACICRGNGYCG-OH (RVCPRXEKKCRRDSDCPGACICRGNGYCG; 4-F-Phe non-natural residue; MOD_RES 6 4-fluoro-L-phenylalanine) [Peptide 1]										in the micromolar range	7,350 fold	No effect on clotting time	three-fold	840 nM	2.9 µM	in the micromolar range	9,650 fold	> 100,000 fold
